Source: patent US20250163038A1, “CBL-B MODULATORS AND USES THEREOF” (Nimbus Clio, Inc., priority 2021, published 2025)

Tests used:
[1] = target: Recombinant human Cbl-b (aa 36-427) (Homo sapiens, UniProt Q13191); test: Cbl-b Biochemical Assay (TR-FRET); details: read-out: TR-FRET hCbl-b IC50
[2] = test system: Jurkat (clone E6-1) cells with NFAT luciferase reporter; test: Jurkat reporter assay (NFAT Luciferase); type: cell-based; details: Homo sapiens; Jurkat NFAT luciferase reporter cells, anti-CD3 stimulation, 6 hr; read-out: Jurkat NFAT EC50
[3] = target: T1, Recombinant human c-Cbl (aa 47-435) (Homo sapiens, UniProt P22681); test: c-Cbl Biochemical Assay (TR-FRET); details: hc-Cbl Biochemical Assay (TR-FRET); read-out: TR-FRET hcCbl IC50
T1 sequence (P22681 47-435): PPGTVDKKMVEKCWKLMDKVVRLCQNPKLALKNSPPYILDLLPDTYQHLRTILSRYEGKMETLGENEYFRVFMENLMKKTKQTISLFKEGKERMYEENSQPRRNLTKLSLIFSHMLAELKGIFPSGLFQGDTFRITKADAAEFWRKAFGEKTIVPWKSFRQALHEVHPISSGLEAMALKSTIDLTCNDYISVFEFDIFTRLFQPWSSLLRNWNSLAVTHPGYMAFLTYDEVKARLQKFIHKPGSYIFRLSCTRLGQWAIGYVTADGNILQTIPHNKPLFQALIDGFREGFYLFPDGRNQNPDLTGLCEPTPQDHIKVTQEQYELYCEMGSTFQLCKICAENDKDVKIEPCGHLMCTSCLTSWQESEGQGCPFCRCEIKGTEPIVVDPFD

Sequence of Recombinant human Cbl-b (aa 36-427) (Q13191 36-427): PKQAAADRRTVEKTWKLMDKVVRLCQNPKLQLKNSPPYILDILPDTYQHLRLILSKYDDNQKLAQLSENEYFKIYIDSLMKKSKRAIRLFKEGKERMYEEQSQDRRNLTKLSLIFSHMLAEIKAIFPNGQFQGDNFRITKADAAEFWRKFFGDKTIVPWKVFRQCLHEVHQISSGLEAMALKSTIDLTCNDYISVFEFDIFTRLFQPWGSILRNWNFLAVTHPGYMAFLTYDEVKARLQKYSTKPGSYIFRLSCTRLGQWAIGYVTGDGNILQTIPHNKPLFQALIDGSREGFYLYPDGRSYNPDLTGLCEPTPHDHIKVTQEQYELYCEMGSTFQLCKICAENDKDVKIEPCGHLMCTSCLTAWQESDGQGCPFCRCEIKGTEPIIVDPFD

## COC(=O)c1ccc2oc(-c3cc(-c4ccc(F)cc4-c4nncn4C)cc(C4CC4)n3)nc2c1 [ADP-1, Methyl 2-{6-cyclopropyl-4-[4-fluoro-2-(4-methyl-1,2,4-triazol-3-yl)phenyl]pyridin-2-yl}-1,3-benzoxazole-5-carboxylate]
[1]
  IC50: 10000 to 50000 nM
[2]
  EC50: 10000 to 50000 nM
[3]
  IC50: 10000 to 50000 nM

## Cn1cnnc1-c1cc(F)ccc1-c1cc(-c2nc3cc(CO)ccc3o2)nc(C2CC2)c1 [ADQ-1, (2-{6-Cyclopropyl-4-[4-fluoro-2-(4-methyl-1,2,4-triazol-3-yl)phenyl]pyridin-2-yl}-1,3-benzoxazol-5-yl)MeOH]
[1]
  IC50: 1000 to 10000 nM
[2]
  EC50: 10000 to 50000 nM
[3]
  IC50: 1000 to 10000 nM

## Cn1cnnc1-c1cc(F)ccc1-c1cc(-c2nc3cc(CNCC4(O)CCC4)cc(C(F)(F)F)c3o2)nc(C2CC2)c1 [ADR-1, 1-((((2-(6-Cyclopropyl-4-(4-fluoro-2-(4-methyl-4H-1,2,4-triazol-3-yl)phenyl)pyridin-2-yl)-7-(trifluoromethyl)benzo[d]oxazol-5-yl)methyl)amino)methyl)cyclobutan-1-ol]
[1]
  IC50: < 200 nM
[2]
  EC50: < 200 nM
[3]
  IC50: < 200 nM

## COCCNCc1cc(C(F)(F)F)c2oc(-c3cc(-c4ccc(F)cc4-c4nncn4C)cc(C4CC4)n3)nc2c1 [ADS-1, N-((2-(6-Cyclopropyl-4-(4-fluoro-2-(4-methyl-4H-1,2,4-triazol-3-yl)phenyl)pyridin-2-yl)-7-(trifluoromethyl)benzo[d]oxazol-5-yl)methyl)-2-methoxyethan-1-amine]
[1]
  IC50: < 200 nM
[2]
  EC50: < 200 nM
[3]
  IC50: < 200 nM

## Cn1cnnc1-c1cc(Cl)ccc1-c1cc(-c2nc3cc(CNCC4(O)CCC4)ccc3o2)nc(C2CC2)c1 [ADT-12, 1-({[(2-{4-[4-Chloro-2-(4-methyl-1,2,4-triazol-3-yl)phenyl]-6-cyclopropylpyridin-2-yl}-1,3-benzoxazol-5-yl)methyl]amino}methyl)cyclobutan-1-ol]
[1]
  IC50: < 200 nM
[2]
  EC50: < 200 nM
[3]
  IC50: < 200 nM

## Cn1cnnc1-c1cc(F)ccc1-c1cc(-c2nc3cc(CO)cc(C(F)(F)F)c3[nH]2)nc(C2CC2)c1 [ADU-2, (2-{6-Cyclopropyl-4-[4-fluoro-2-(4-methyl-1,2,4-triazol-3-yl)phenyl]pyridin-2-yl}-7-(trifluoromethyl)-1H-1,3-benzodiazol-5-yl)methanol]
[1]
  IC50: < 200 nM
[2]
  EC50: 200 to 1000 nM
[3]
  IC50: < 200 nM

## Cn1cnnc1-c1cc(F)ccc1-c1cc(-c2nc3cc(CN[C@@H]4CCC[C@@H]4O)cc(C(F)(F)F)c3[nH]2)nc(C2CC2)c1 [ADV-2, (1S,2R)-2-{[(2-{6-Cyclopropyl-4-[4-fluoro-2-(4-methyl-1,2,4-triazol-3-yl)phenyl]pyridin-2-yl}-7-(trifluoromethyl)-1H-1,3-benzodiazol-5-yl)methyl]amino}cyclopentan-1-ol]
[1]
  IC50: < 200 nM
[2]
  EC50: < 200 nM
[3]
  IC50: < 200 nM

## COCCNCc1cc(C(F)(F)F)c2[nH]c(-c3cc(-c4ccc(F)cc4-c4nncn4C)cc(C4CC4)n3)nc2c1 [ADW-1, [(2-{6-Cyclopropyl-4-[4-fluoro-2-(4-methyl-1,2,4-triazol-3-yl)phenyl]pyridin-2-yl}-7-(trifluoromethyl)-1H-1,3-benzodiazol-5-yl)methyl](2-methoxyethyl)amine]
[1]
  IC50: < 200 nM
[2]
  EC50: < 200 nM
[3]
  IC50: < 200 nM

## Cn1cnnc1-c1cc(F)ccc1-c1cc(Cl)nc(-c2nc3cc(CN[C@@H]4CCC[C@@H]4O)cc(C(F)(F)F)c3[nH]2)c1 [ADY-2, (1S,2R)-2-{[(2-{6-Chloro-4-[4-fluoro-2-(4-methyl-1,2,4-triazol-3-yl)phenyl]pyridin-2-yl}-7-(trifluoromethyl)-1H-1,3-benzodiazol-5-yl)methyl]amino}cyclopentan-1-ol]
[1]
  IC50: < 200 nM
[2]
  EC50: < 200 nM
[3]
  IC50: < 200 nM

## Cn1cnnc1[C@]1(c2cccc(-c3nc4cc(CNCC5CCC5)cc(C(F)(F)F)c4o3)c2)C[C@H](C)C1 [ADZ-1, (Cyclobutylmethyl)[(2-{3-[(1r,3s)-3-methyl-1-(4-methyl-1,2,4-triazol-3-yl)cyclobutyl]phenyl}-7-(trifluoromethyl)-1,3-benzoxazol-5-yl)methyl]amine]
[1]
  IC50: < 200 nM
[2]
  EC50: 200 to 1000 nM
[3]
  IC50: < 200 nM

## Cn1cnnc1-c1cc(F)ccc1-c1cccc(-c2nc3cc(CNCC(C)(C)O)cc(C(F)(F)F)c3o2)c1 [AE-2, 1-(((2-(4′-Fluoro-2′-(4-methyl-4H-1,2,4-triazol-3-yl)-[1,1′-biphenyl]-3-yl)-7-(trifluoromethyl)benzo[d]oxazol-5-yl)methyl)amino)-2-methylpropan-2-ol]
[1]
  IC50: < 200 nM
[2]
  EC50: 200 to 1000 nM
[3]
  IC50: 1000 to 10000 nM

## COc1cc(CN[C@@H]2CCC[C@@H]2O)cc2nc(-c3cccc([C@]4(c5nncn5C)C[C@@H](C)C4)c3)oc12 [AEC-2]
[1]
  IC50: < 200 nM
[2]
  EC50: 200 to 1000 nM
[3]
  IC50: < 200 nM

## Cn1cnnc1-c1cc(F)ccc1-c1cc(-c2nc3cc(CN[C@@H]4CCC[C@@H]4O)ccc3[nH]2)nc(C2CC2)c1 [AEF-2, (1S,2R)-2-(((2-(6-Cyclopropyl-4-(4-fluoro-2-(4-methyl-4H-1,2,4-triazol-3-yl)phenyl)pyridin-2-yl)-1H-benzo[d]imidazol-5-yl)methyl)amino)cyclopentan-1-ol]
[1]
  IC50: < 200 nM
[2]
  EC50: 200 to 1000 nM
[3]
  IC50: < 200 nM

## Cn1cnnc1-c1cc(F)ccc1-c1ccnc(-c2nc3cc(CN[C@@H]4CCC[C@@H]4O)cc(C(F)(F)F)c3o2)c1 [AEG-8, (1S,2R)-2-{[(2-{4-[4-Fluoro-2-(4-methyl-1,2,4-triazol-3-yl)phenyl]pyridin-2-yl}-7-(trifluoromethyl)-1,3-benzoxazol-5-yl)methyl]amino}cyclopentan-1-ol]
[1]
  IC50: < 200 nM
[2]
  EC50: < 200 nM
[3]
  IC50: < 200 nM

## Cn1cnnc1-c1cc(F)ccc1-c1cc(-c2nc3cc(CN[C@@H]4CCC[C@@H]4O)ccc3o2)nc(C2CC2)c1 [AEH-2, (1S,2R)-2-{[(2-{6-Cyclopropyl-4-[4-fluoro-2-(4-methyl-1,2,4-triazol-3-yl)phenyl]pyridin-2-yl}-1,3-benzoxazol-5-yl)methyl]amino}cyclopentan-1-ol]
[1]
  IC50: < 200 nM
[2]
  EC50: < 200 nM
[3]
  IC50: < 200 nM

## Cn1cnnc1-c1cc(F)ccc1-c1cc(-c2nc3cc(CNCC4CC4)ccc3o2)nc(C2CC2)c1 [AEI-1, [(2-{6-Cyclopropyl-4-[4-fluoro-2-(4-methyl-1,2,4-triazol-3-yl)phenyl]pyridin-2-yl}-1,3-benzoxazol-5-yl)methyl](cyclopropylmethyl)amine]
[1]
  IC50: < 200 nM
[2]
  EC50: 200 to 1000 nM
[3]
  IC50: < 200 nM

## CCNc1cc(-c2ccc(F)cc2-c2nncn2C)cc(-c2nc3cc(C(=O)OC)cc(C(F)(F)F)c3o2)n1 [AEK-2, Methyl 2-[6-(ethylamino)-4-[4-fluoro-2-(4-methyl-1,2,4-triazol-3-yl)-phenyl]-pyridin-2-yl]-7-(trifluoromethyl)-1,3-benzoxazole-5-carboxylate]
[1]
  IC50: 1000 to 10000 nM
[2]
  EC50: 1000 to 10000 nM
[3]
  IC50: 1000 to 10000 nM

## CCNc1cc(-c2ccc(F)cc2-c2nncn2C)cc(-c2nc3cc(CO)cc(C(F)(F)F)c3o2)n1 [AEL-1, {2-[6-(Ethylamino)-4-[4-fluoro-2-(4-methyl-1,2,4-triazol-3-yl)-phenyl]-pyridin-2-yl]-7-(trifluoromethyl)-1,3-benzoxazol-5-yl}-methanol]
[1]
  IC50: 200 to 1000 nM
[2]
  EC50: 10000 to 50000 nM
[3]
  IC50: 200 to 1000 nM

## COCCNCc1ccc2oc(-c3cc(-c4ccc(Cl)cc4-c4nncn4C)cc(C4CC4)n3)nc2c1 [AEM-1]
[1]
  IC50: < 200 nM
[2]
  EC50: < 200 nM
[3]
  IC50: < 200 nM

## COCCNCc1ccc2oc(-c3cc(-c4ccc(C#N)cc4-c4nncn4C)cc(C4CC4)n3)nc2c1 [AEN-15, 4-[2-Cyclopropyl-6-(5-{1[(2-methoxyethyl)amino]methyl}-1,3-benzoxazol-2-yl)pyridin-4-yl]-3-(4-methyl-1,2,4-triazol-3-yl)benzonitrile]
[1]
  IC50: < 200 nM
[2]
  EC50: 200 to 1000 nM
[3]
  IC50: 200 to 1000 nM

## Cn1cnnc1-c1cc(C#N)ccc1-c1cc(-c2nc3cc(CNCC4CCC4)ccc3o2)nc(C2CC2)c1 [AEO-1, 4-[2-(5-{[(Cyclobutylmethyl)amino]methyl}-1,3-benzoxazol-2-yl)-6-cyclopropylpyridin-4-yl]-3-(4-methyl-1,2,4-triazol-3-yl)benzonitrile]
[1]
  IC50: < 200 nM
[2]
  EC50: < 200 nM
[3]
  IC50: < 200 nM

## Cn1cnnc1-c1cc(F)ccc1-c1cc(-c2nc3cc(CO)ccc3o2)cc(C2CC2)c1 [AEP-2, {2-[5-cyclopropyl-4′-fluoro-2′-(4-methyl-1,2,4-triazol-3-yl)-[1,1′-biphenyl]-3-yl]-1,3-benzoxazol-5-yl}methanol]
[1]
  IC50: 200 to 1000 nM
[2]
  EC50: 1000 to 10000 nM
[3]
  IC50: 200 to 1000 nM

## Cn1cnnc1-c1cc(F)ccc1-c1cc(-c2nc3cc(CN[C@@H]4CCC[C@@H]4O)ccc3o2)cc(C2CC2)c1 [AEQ-2, (1S,2R)-2-[({2-[5-Cyclopropyl-4′-fluoro-2′-(4-methyl-1,2,4-triazol-3-yl)-[1,1′-biphenyl]-3-yl]-1,3-benzoxazol-5-yl}methyl)amino]cyclopentan-1-ol]
[1]
  IC50: < 200 nM
[2]
  EC50: < 200 nM
[3]
  IC50: < 200 nM
